Assays:
hrPDE3A = target: T1, hrPDE3A (Homo sapiens, UniProt Q14432); assay: PDE-Glo catalytic activity assay, PDE3A; assay type: biochemical
T1 construct: purchased SignalChem, Richmond, Canada
Description: The inhibitory activity of compound 34 against hrPDE1B and hrPDE3A (SignalChem, Richmond, Canada) was assessed using the PDE-Glo™ catalytic activity assay (Promega Corporation, Madison, WI, USA). It was performed on 384-well plates according to manufacturer’s instructions with slight modifications. Solutions of both PDEs were prepared by diluting their stock solutions in the PDE-Glo™ Reaction Buffer and aliquots of 6.5 μL were added to the wells. A stock solution of the tested compound was prepared in DMSO at a concentration of 10 mM and serially diluted with the same solvent. The obtained solutions were further diluted with PDE-Glo™ Reaction Buffer (1:5, v/v) and aliquots of 1 μL were transferred to the respective wells. Then, the mixture was incubated for 10 min at 30 °C on a heated plate shaker (Grant Instruments, Cambridge, United Kingdom). The reaction was started by the addition of 2.5 μL of a 0.2 μM cAMP solution to each well and the plate was incubated for 10 min at 30 °C on a heated plate shaker. Moreover, for each series, respective control reactions were performed: no-substrate, no-enzyme negative control reactions; no-enzyme positive control reactions containing substrate; and no-inhibitor positive control reactions containing both the substrate and PDE. After incubation, the reaction was stopped by adding 2.5 μL of the PDE-Glo™ Termination Buffer. A volume of 2.5 μL of the PDE-Glo™ Detection Buffer was transferred to each well and the plate was incubated for 20 min at room temperature. Finally, an aliquot of 10 μL of the PDE-Glo Kinase® Reagent was added to the wells. The plate was incubated for 10 min at room temperature and luminescence was measured with a luminometer (BMG Labtech, Ortenberg, Germany). For each inhibitor concentration, four independent measurements were performed. The resulting data were expressed as percent of an uninhibited control and plotted against the inhibitor concentration. The IC50 values were estimated by nonlinear regression using ADAPT5 software (BMSR, Los Angeles, CA, USA).

[1] = Pharmacokinetic study in mice, single IP dose, serum; assay type: in vivo, female C57BL/6 mice; conditions: female, mouse
Description: Female Lewis rats and female C57BL/6 mice were administered IP with compound 34 dissolved in vehicle at a dose of 20 and 50 mg·kg^−1, respectively. Rats and mice were sacrificed at different time points (n = 3 per time point) following compound administration by decapitation under deep anesthesia. Thereafter, blood samples were harvested and allowed to clot at room temperature for 20 min and serum was separated by centrifugation at 3000 rpm for 10 min (EBA 12 R, Hettich, Germany). The obtained serum samples were stored at −80 °C until analysis.
Concentrations of compound 34 in rat and murine serum were quantified by an HPLC/UV method. To isolate the investigated compound, 100 μL of serum containing compound 34 or the same volume of blank serum spiked with a standard solution of compound 34, 10 μL of 4-(8-((furan-2-ylmethyl)amino)-1,3-dimethyl-2,6-dioxo-2,3,6,7-tetrahydro-1H-purin-7-yl)-N’-(2-hydroxybenzylidene)butanehydrazide methanol solution was used as an internal standard (IS) at a concentration of 80 μg·mL^−1, and 50 μL of 0.2 M NaOH solution was added. Subsequently, 1 mL of ethyl acetate was added to each sample and extraction was performed for 20 min on a VXR Vibrax shaker (IKA, Germany). Then, the samples were centrifuged (10,000× g, 5 min) on EBA 12 R centrifuge (Hettich, Germany) and the organic layers were collected and transferred to clean tubes. Subsequently, the organic layers were evaporated under a mild stream of nitrogen at 37 °C and the residues were dissolved in 100 μL of mobile phase and subjected to an HPLC analysis. The HPLC system (LaChrom Elite, Merck-Hitachi, Germany) consisted of L-2420 UV-VIS detector, an L-2200 autosampler, and an L-2130 pump. EZChrome Elite v. 3.2 (Merck-Hitachi, Germany) software was used for data acquisition and integration. The analysis was performed at ambient temperature on a LiChrospher 100 RP-18 column (250 × 4 mm) and a LiChroCART (4 × 4 mm) pre-column (Merck, Germany). The mobile phase was composed of acetonitrile mixed with 20 mM KH2PO4 water solution (pH = 4.5) at the ratio of 40:60 (v/v). A flow rate was 1 mL·min^−1 and analytical wavelength was set at 302 nm. The retention times of compound 34 and IS were approximately 6.3 min and 10.6 min. The method was validated according to the FDA Bioanalytical Method Validation Guidance for Industry (2018). The calibration curves constructed by plotting the peak area of the studied compound to the peak area of the IS vs. compound concentrations were linear in the tested concentration range, i.e., from 0.05–10 mg·L^−1 (r > 0.998). The limit of quantification was 0.05 mg·L^−1. […] The assay presented acceptable intra- and inter-assay precision and accuracy (i.e., they were within 15% of the CV and 15% of the nominal concentration, respectively) for all quality control concentrations (0.1, 1, and 5 mg·L^−1). The mean extraction efficiencies of the analyzed compound and the IS were above 80%.
Pharmacokinetics of compound 34 were investigated in rats and mice following single IP administration. One- and two-compartment models with first-order absorption and linear elimination were tested, but only the one-compartment model appropriately described the concentration-time courses of compound 34 in both rat and murine serum. […] The equations of the model are as follows:(1) dA/dt=−ka×A;A0=D×F, (2) Vd×dCp/dt=ka×A−CLT×Cp; Cp0=0 where A is the amount of the drug at the absorption site, ka is the first-order rate constant of drug absorption, D is the dose, F is the bioavailability, Vd is the volume of distribution, CLT is the total clearance, and Cp is the serum concentration of compound 34.

T1 sequence (Q14432 whole entry): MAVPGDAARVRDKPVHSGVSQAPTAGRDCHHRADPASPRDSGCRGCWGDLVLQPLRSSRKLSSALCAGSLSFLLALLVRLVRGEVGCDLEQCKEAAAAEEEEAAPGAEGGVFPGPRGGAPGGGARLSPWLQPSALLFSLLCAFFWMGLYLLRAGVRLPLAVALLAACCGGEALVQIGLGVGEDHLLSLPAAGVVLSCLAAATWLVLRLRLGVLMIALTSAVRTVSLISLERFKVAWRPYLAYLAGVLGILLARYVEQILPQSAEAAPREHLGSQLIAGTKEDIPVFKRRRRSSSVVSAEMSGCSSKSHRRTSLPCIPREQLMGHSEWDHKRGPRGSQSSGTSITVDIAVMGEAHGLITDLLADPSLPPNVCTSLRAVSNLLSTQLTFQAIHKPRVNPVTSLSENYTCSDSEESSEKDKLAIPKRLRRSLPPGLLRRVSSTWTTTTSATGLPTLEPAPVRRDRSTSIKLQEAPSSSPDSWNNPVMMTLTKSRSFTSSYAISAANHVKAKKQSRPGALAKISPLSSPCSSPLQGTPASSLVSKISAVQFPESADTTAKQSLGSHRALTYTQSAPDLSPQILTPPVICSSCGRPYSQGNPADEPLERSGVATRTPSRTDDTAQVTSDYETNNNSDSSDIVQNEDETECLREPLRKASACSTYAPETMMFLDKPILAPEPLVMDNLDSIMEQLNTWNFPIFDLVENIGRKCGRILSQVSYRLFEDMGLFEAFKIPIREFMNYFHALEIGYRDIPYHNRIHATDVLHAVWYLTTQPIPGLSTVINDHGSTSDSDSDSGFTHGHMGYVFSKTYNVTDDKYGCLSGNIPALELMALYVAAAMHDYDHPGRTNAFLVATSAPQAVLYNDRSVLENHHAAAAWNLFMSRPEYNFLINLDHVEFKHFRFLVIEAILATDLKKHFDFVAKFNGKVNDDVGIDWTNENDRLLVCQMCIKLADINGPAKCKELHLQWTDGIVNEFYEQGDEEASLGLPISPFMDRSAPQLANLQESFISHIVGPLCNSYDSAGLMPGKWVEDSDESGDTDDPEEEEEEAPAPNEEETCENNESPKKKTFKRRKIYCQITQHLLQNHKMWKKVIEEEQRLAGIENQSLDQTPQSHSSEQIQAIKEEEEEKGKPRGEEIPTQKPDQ

IC50 (hrPDE3A; human recombinant PDE3A, CV% in brackets, read-out: IC50 (µM) Against PDE Isoform (CV%) PDE3A): 0.78 µM
times more potent than GRMS-55 in inhibiting PDE3A (hrPDE3A; ratio of IC50 values, vs GRMS-55): 17 times
inhibitory activity against PDE3A, times lower compared to milrinone (hrPDE3A; ratio of IC50 values, vs milrinone): about 4 times
absorption half-life ([1]; C57BL/6, serum, 50 mg·kg^−1, IP, solution in DMSO:PEG400:sterile water (10:40:50)): 4.5 min
Vd/F ([1]; C57BL/6, single IP dose 50 mg·kg^−1, serum, one-compartment model, read-out: Vd/F Apparent volume of distribution, Final Estimate (CV%)): 21.7 L/kg
AUC ([1]; C57BL/6, single IP dose 50 mg·kg^−1, serum, read-out: AUC Area under the concentration-time curve, Final Estimate (CV%) (converted)): 818 ng·h/mL
CL/F ([1]; C57BL/6, single IP dose 50 mg·kg^−1, serum, read-out: CLT/F Apparent clearance, Final Estimate (CV%)): 1020 mL/min/kg
Cmax ([1]; C57BL/6, single IP dose 50 mg·kg^−1, serum, read-out: Cmax Maximum serum concentration, Final Estimate (CV%)): 1370 ng/mL
half-life ([1]; C57BL/6, single IP dose 50 mg·kg^−1, serum, read-out: t0.5 Elimination half-life, Final Estimate (CV%)): 14.7 min
SMILES: Cn1c(=O)c2c(nc(NCCc3ccccc3)n2CCCC(=O)NN=Cc2ccc(O)c(O)c2O)n(C)c1=O [Compound 34, 4-(1,3-dimethyl-2,6-dioxo-8-(phenethylamino)-2,3,6,7-tetrahydro-1H-purin-7-yl)-N′-(2,3,4-trihydroxybenzylidene)butanehydrazide]

From paper PMC9147171, “Pharmacokinetic/Pharmacodynamic Evaluation of a New Purine-2,6-Dione Derivative in Rodents with Experimental Autoimmune Diseases” (Pharmaceutics, 2022)
